The values below are quoted from earlier work in patent publication US20170252311A1, “SPHINGOSINE KINASE INHIBITORS AND CERAMIDE FOR MAINTENANCE THERAPY OF GLIOBLASTOMA” (SignPath Pharma Inc., priority 2016, published 2017).

The test system of data set [1] is xenograft prostate cancer models.
Data set [2] concerns prostate cancer cell lines and TRAMP-C2 xenografts.
Data set [3] concerns SM Syn.
The target in data set [4] is GCS (glucosylceramide synthase) (Homo sapiens, UniProt Q16739).
Data set [5] concerns SK (sphingosine kinase). The note with it: arrow down = decrease, arrow up = increase (not defined in patent).
The test system of data set [6] is SMase (Sphingomyelinase).
Data set [7] concerns the target T1, Acid Cer (Acid ceramidase) (Homo sapiens, UniProt Q13510).
T1 sequence (Q13510 22-395): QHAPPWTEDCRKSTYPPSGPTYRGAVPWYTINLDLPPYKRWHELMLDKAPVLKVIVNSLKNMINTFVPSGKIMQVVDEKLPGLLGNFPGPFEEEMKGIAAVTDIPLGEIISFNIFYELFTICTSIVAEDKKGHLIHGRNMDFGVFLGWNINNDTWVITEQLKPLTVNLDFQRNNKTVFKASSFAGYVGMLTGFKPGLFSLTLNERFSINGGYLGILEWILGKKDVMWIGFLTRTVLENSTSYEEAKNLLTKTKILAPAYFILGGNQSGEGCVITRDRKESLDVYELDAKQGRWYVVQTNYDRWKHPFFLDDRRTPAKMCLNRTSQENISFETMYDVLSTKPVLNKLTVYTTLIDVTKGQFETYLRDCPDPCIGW

The test system of data set [8] is Cer Syn (ceramide synthase).
For data set [9], the system named is SPT (serine palmitoyltransferase).
In data set [10] the test system is tumor. The note with it: single agent.
Data set [11] deals with GTP cyclohydrolase (GTPCH). The note with it: C6 glioma cell line.
Data set [12] concerns LN229 and U373 glioblastoma cell lines, non-established human GBM6 cells, and GBM xenografts.
Data set [13] deals with SK2 (Homo sapiens, UniProt Q9NRA0). As to conditions: selectivity.
Data set [14] relates to GBM6 cell lines.
Data set [15] relates to human leukemic cell lines and acute myelogenous leukemia xenografts. As to conditions: human leukemic cell lines and AML xenografts.
The subject of data set [16] is protein kinase C. The note with it: selectivity.
For data set [17], the system named is protein kinase B. The note with it: selectivity.
The test system of data set [18] is other serine/threonine kinases. The note with it: selectivity.
Data set [19] has as its system LN229, U373 cell lines.
In data set [20] the test system is LN229 intracranial xenografts.
For data set [21], the system named is JC mammary adenocarcinoma cells. As to conditions: syngeneic BALB/c mouse solid tumor model of JC cells.
Data set [22] relates to JC mouse mammary adenocarcinoma cell line.
In data set [23] the test system is U118MG cell line.
Data set [24] deals with U251MG, D54MG cell lines.
In data set [25] the test system is U87MG, U1242MG, M059K cell lines. As to conditions: in all three lines.
Data set [26] concerns U98G cell line.

Molecules are shown by their SMILES. Where two headings read alike, the source gives them in different places.

Chain of GCS (glucosylceramide synthase) (Q16739 whole entry, species assumed): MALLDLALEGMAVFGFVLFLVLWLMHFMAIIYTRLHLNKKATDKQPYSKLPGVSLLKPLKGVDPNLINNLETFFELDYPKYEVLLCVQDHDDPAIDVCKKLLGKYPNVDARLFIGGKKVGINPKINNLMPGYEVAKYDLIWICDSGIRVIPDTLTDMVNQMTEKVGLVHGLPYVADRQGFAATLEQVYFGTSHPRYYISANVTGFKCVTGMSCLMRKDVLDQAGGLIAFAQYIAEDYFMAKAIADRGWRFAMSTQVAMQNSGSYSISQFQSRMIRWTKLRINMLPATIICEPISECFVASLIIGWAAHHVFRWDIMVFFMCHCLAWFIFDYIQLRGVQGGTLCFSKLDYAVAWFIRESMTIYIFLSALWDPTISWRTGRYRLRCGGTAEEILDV
Chain of SK2 (Q9NRA0 whole entry): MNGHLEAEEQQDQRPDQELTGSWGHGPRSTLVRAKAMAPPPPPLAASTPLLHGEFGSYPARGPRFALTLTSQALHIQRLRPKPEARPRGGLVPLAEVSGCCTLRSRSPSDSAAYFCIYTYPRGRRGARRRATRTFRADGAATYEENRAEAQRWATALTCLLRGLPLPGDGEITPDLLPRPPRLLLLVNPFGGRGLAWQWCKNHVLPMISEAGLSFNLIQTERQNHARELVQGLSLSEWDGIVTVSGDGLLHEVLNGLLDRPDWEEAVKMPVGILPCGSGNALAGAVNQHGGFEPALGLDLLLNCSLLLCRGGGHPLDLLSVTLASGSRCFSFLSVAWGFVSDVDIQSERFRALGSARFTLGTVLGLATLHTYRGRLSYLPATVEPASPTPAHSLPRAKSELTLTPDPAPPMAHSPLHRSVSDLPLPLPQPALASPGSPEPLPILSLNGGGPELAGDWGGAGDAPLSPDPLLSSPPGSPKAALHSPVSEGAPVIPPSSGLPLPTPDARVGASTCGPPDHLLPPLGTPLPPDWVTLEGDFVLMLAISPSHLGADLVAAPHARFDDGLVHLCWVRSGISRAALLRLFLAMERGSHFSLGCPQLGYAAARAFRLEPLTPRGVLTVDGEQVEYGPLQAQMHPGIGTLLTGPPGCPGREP

As for `O=C(NCc1ccncc1)C12CC3CC(C1)CC(c1ccc(Cl)cc1)(C3)C2` [ABC294640, 3-(4-chlorophenyl)-adamantane-1-carboxylic acid (pyridin-4-ylmethyl) amide], the cancer growth entry in data set [1] was “significantly blocked cancer growth”. In [2], the cell viability entry is on record as “reduced cell viability” and the expression of c-myc entry was “decreased expression of c-myc”.

`CCN(CC)CCCC(C)Nc1ccnc2cc(Cl)ccc12` (stereo not drawn) [Chloroquine]: the “Sphingolipid Enzymes Affected: SM Syn” value in data set [3] is given as “↓SM Syn”. Further, the “Sphingolipid Enzymes Affected: GCS” value in [4] is reported as “↑GCS”. In addition, the “Sphingolipid Enzymes Affected: SK” value in data set [5] is recorded as “↓SK”. In addition, the “Sphingolipid Enzymes Affected: SMase” value in data set [6] is on record as “↑↓Smase”. The “Sphingolipid Enzymes Affected: Acid Cer” value in data set [7] was “↓Acid Cer”.

For `COc1cc(/C=C/C(=O)CC(=O)/C=C/c2ccc(O)c(OC)c2)ccc1O` [Curcumin], in [8], the “Sphingolipid Enzymes Affected: Cer Syn” value is “↑Cer Syn”. In [5], the “Sphingolipid Enzymes Affected: SK” value is “↓SK”. Moreover, in [9], the “Sphingolipid Enzymes Affected: SPT” value is “↑SPT”.

Regarding `Cc1ccc(NC(=O)c2ccc(CN3CCN(C)CC3)cc2)cc1Nc1nccc(-c2cccnc2)n1` [Imatinib], the “Sphingolipid Enzymes Affected: Cer Syn” value in data set [8] is recorded as “↑Cer Syn”. The “Sphingolipid Enzymes Affected: SK” value in [5] was “↓SK”.

Regarding `OC(c1cc(C(F)(F)F)nc2c(C(F)(F)F)cccc12)C1CCCCN1` (stereo not drawn) [Mefloquine], the “Sphingolipid Enzymes Affected: SM Syn” value in data set [3] is reported as “↓SM Syn”. The “Sphingolipid Enzymes Affected: GCS” value in [4] was “↑GCS”. Besides, in data set [5], the “Sphingolipid Enzymes Affected: SK” value is “↓SK”. In addition, the “Sphingolipid Enzymes Affected: SMase” value in data set [6] was “↑↓Smase”. In addition, the “Sphingolipid Enzymes Affected: Acid Cer” value in [7] is recorded as “↓Acid Cer”.

For the molecule `CCCCCCCCCCCCC/C=C/[C@@H](O)[C@H](CO)[N+](C)(C)C` [N,N,N-trimethylsphingosine], the anti-tumor activity alone result in data set [10] is recorded as “did not appear to have significant anti-tumor activity alone”.

In the case of `CCCCCCCCCCCCC/C=C/[C@@H](O)[C@H](CO)N(C)C` [N,N-dimethylshingosine], the “tumor necrosis factor-α induced GTP cyclohydrolase (GTPCH) activity” value in [11] was “Suppressed tumor necrosis”.

As to `Cc1cn(-c2cc(NC(=O)c3ccc(C)c(Nc4nccc(-c5cccnc5)n4)c3)cc(C(F)(F)F)c2)cn1` [Nilotinib], in [8], the “Sphingolipid Enzymes Affected: Cer Syn” value was “↑Cer Syn”. Besides, the “Sphingolipid Enzymes Affected: SK” value in data set [5] is reported as “↓SK”.

For the molecule `Oc1ccc(C=Cc2cc(O)cc(O)c2)cc1` [Resveratrol], the “Sphingolipid Enzymes Affected: Cer Syn” value in [8] is “↑Cer Syn”. Besides, the “Sphingolipid Enzymes Affected: SK” value in data set [5] was “↓SK”. The “Sphingolipid Enzymes Affected: SPT” value in data set [9] is reported as “↑SPT”.

Take `CCCCCc1ccc(/C=C/[C@H](O)[C@@H](CO)NC)cc1` [SK1-I, (2R,3S,4E)-N-methyl-5-(4′-pentylphenyl)-2-aminopent-4-ene-1,3-diol]: in data set [12], the apoptosis entry was “prompts apoptosis”, the “protein kinase B (Akt) signaling” value is given as “inhibits protein kinase B (Akt) signaling” and the tumor development entry is “suppresses tumor development”. Besides, in data set [13], the “inhibition of SK2” value is listed as “does not inhibit”. Besides, in data set [14], the cell growth result is reported as “Reduced cell growth” and the “epidermal growth factor-stimulated phosphorylation of Akt” value was “Reduced”. For the same molecule, in data set [15], the apoptosis result is “induced apoptosis” and the tumor growth result was “blocked tumor growth”. In addition, the “inhibition of protein kinase C” value in data set [16] was “does not inhibit”. For the same molecule, the “inhibition of protein kinase B” value in data set [17] was “does not inhibit”. Moreover, in data set [18], the “inhibition of other serine/threonine kinases” value is “does not inhibit”. Also, in data set [19], the cell growth entry is listed as “Inhibited cell growth” and the migration result is reported as “Inhibited”. For the same molecule, in [20], the angiogenesis result is reported as “Reduced”, the apoptosis result is on record as “Caused apoptosis” and the tumor growth rate entry is recorded as “Reduced tumor growth rate”.

For `O=C(NN=Cc1c(O)ccc2ccccc12)c1cc(-c2ccc3ccccc3c2)n[nH]1` [SKI-I, 5-naphthalen-2-yl-2H-pyrazole-3-carboxylic acid (2-hydroxy-naphthalen-1-ylmethylene)-hydrazide], the anti-tumor activity entry in data set [21] and in [22] was “anti-tumor activity” throughout.

As for `Oc1ccc(Nc2nc(-c3ccc(Cl)cc3)cs2)cc1` [SKI-II, 4-[4-(4-chloro-phenyl)-thiazol-2-ylamino]-phenol], in data set [21], the anti-tumor activity result is “especially effective”. Besides, in data set [23], the “expression of urokinase plasminogen activator” value is reported as “Blocked” and the invasiveness entry is listed as “Decreased invasiveness”. In data set [22], the anti-tumor activity entry is “anti-tumor activity”. In [24] (TMZ resistant GBM cell lines U251 and D54MG), the cancer cell death result is “promote cancer cell death”. The “activity in cell lines made resistant to TMZ” value in data set [24] (U251MG, D54MG) is “Active in cell lines mde resistant”. Further, the cellular proliferation entry in [25] (listed as 2-(p-Hdroxyanilino)-4-(p-chlorophenyl)thiazole) was “Decreased cellular proliferation”. Also, the cellular proliferation entry in data set [25] (listed as 2-(p-Hydroxyanilino)-4-(p-chlorophenyl)thiazole) is on record as “significantly decreased the rate of proliferation”. Further, in data set [26], the “cell cycle (accumulation of cells at G1)” value was “accumulation of cells at G1” and the proliferation result is “Decreased proliferation. Caused”.

Consider `O=C1C(=Cc2ccc(O)c(O)c2)Oc2ccccc21` [SKI-V, 2-(3,4-dihydroxy-benzylidene)-benzofuran-3-one], for which the anti-tumor activity result in data set [21] and in [22] was “anti-tumor activity” each time.

Consider `CCCCCCCCCCCCCCC[C@H](O)[C@@H](N)CO` [safingol, D,L-threodihydrosphingosine], for which the anti-tumor activity alone result in [10] is “did not appear to have significant anti-tumor activity alone”.

Take `CC/C(=C(\c1ccccc1)c1ccc(OCCN(C)C)cc1)c1ccccc1` [tamoxifen]: in [7], the “Sphingolipid Enzymes Affected: Acid Cer” value is “decreases acid ceramidase”.
